Source: PMC10712729, “A Phase I Trial of the Dual MET Kinase/OCT-2 Inhibitor OMO-1 in Metastatic Solid Malignancies Including MET Exon 14 Mutated Lung Cancer” (The Oncologist, 2023)
Values joined by “and” are separate entries in the source; they are usually repeats but may differ in a detail not shown here. Equal values may be shown once.

Test: Phase I safety and tolerability of OMO-1 monotherapy, Module 1 Part A dose escalation (drug-related TEAEs, DLTs, RP2D)
Conditions: for DLTs: first cycle

FC(F)(c1ccc2ncccc2c1)c1nnc2ccc(-c3ccncc3)nn12 [OMO-1]
Total n with AE, Drug-related TEAEs, All grades (350 mg BID n = 5): 4 (80%) n (%)
Total n with AE, Drug-related TEAEs, SAE (350 mg BID n = 5): 1 (20%) n (%)
Vomiting, Drug-related TEAEs, All grades (350 mg BID n = 5): 3 (60%) n (%)
Vomiting, Drug-related TEAEs, SAE (350 mg BID n = 5): 1 (20%) n (%)
Anemia, Drug-related TEAEs, All grades (400 mg BID n = 3): 1 (33%) n (%)
Blood bilirubin ↑, Drug-related TEAEs, All grades (400 mg BID n = 3): 1 n (%)
Blood bilirubin ↑, Drug-related TEAEs, SAE (400 mg BID n = 3): 1 (33%) n (%)
Blood creatinine ↑, Drug-related TEAEs, All grades (400 mg BID n = 3): 3 (100%) n (%)
Blood creatinine ↑, Drug-related TEAEs, SAE (400 mg BID n = 3): 1 (33%) n (%)
Chills/ influenza like symptoms, Drug-related TEAEs, All grades (400 mg BID n = 3): 1 (33%) n (%)
Chills/ influenza like symptoms, Drug-related TEAEs, Grade ≥3 (400 mg BID n = 3): 1 (33%) n (%)
Chills/ influenza like symptoms, Drug-related TEAEs, SAE (400 mg BID n = 3): 1 (33%) n (%)
Decreased appetite, Drug-related TEAEs, All grades (400 mg BID n = 3): 0 n (%)
Diarrhoea, Drug-related TEAEs, All grades (400 mg BID n = 3): 1 (33%) n (%)
Diarrhoea, Drug-related TEAEs, SAE (400 mg BID n = 3): 1 (33%) n (%)
Fatigue, Drug-related TEAEs, All grades (400 mg BID n = 3): 2 (67%) n (%)
Nausea, Drug-related TEAEs, All grades (400 mg BID n = 3): 1 (33%) n (%)
Nausea, Drug-related TEAEs, SAE (400 mg BID n = 3): 1 (33%) n (%)
Neutrophil count↓, Drug-related TEAEs, All grades (400 mg BID n = 3): 1 n (%)
Neutrophil count↓, Drug-related TEAEs, SAE (400 mg BID n = 3): 1 (33%) n (%)
Tachycardia, Drug-related TEAEs, All grades (400 mg BID n = 3): 1 (33%) n (%)
Total n with AE, Drug-related TEAEs, All grades (400 mg BID n = 3): 3 (100%) n (%)
Total n with AE, Drug-related TEAEs, Grade ≥3 (400 mg BID n = 3): 1 (33%) n (%)
Total n with AE, Drug-related TEAEs, SAE (400 mg BID n = 3): 2 (67%) n (%)
patients discontinued due to related toxicity (100, 200, and 250 mg BID): 25% (4/16)
Anemia, Drug-related TEAEs, All grades (All doses n = 24): 4 (17%) n (%)
Anemia, Drug-related TEAEs, Grade ≥3 (All doses n = 24): 1 (4%) n (%)
Blood bilirubin ↑, Drug-related TEAEs, All grades (All doses n = 24): 1 (4%) n (%)
Blood bilirubin ↑, Drug-related TEAEs, SAE (All doses n = 24): 1 (4%) n (%)
Blood creatinine ↑, Drug-related TEAEs, All grades (All doses n = 24): 9 (38%) n (%)
Blood creatinine ↑, Drug-related TEAEs, Grade ≥3 (All doses n = 24): 1 (4%) n (%)
Blood creatinine ↑, Drug-related TEAEs, SAE (All doses n = 24): 1 (4%) n (%)
Chills/ influenza like symptoms, Drug-related TEAEs, All grades (All doses n = 24): 3 (13%) n (%)
Chills/ influenza like symptoms, Drug-related TEAEs, Grade ≥3 (All doses n = 24): 1 (4%) n (%)
Chills/ influenza like symptoms, Drug-related TEAEs, SAE (All doses n = 24): 2 (8%) n (%)
Decreased appetite, Drug-related TEAEs, All grades (All doses n = 24): 4 (17%) n (%)
Diarrhoea, Drug-related TEAEs, SAE (All doses n = 24): 1 (4%) n (%)
Dizziness, Drug-related TEAEs, All grades (All doses n = 24): 4 (17%) n (%)
Fatigue, Drug-related TEAEs, All grades (All doses n = 24): 10 (42%) n (%)
Fatigue, Drug-related TEAEs, Grade ≥3 (All doses n = 24): 1 (4%) n (%)
Headache, Drug-related TEAEs, All grades (All doses n = 24): 5 (21%) n (%)
Nausea, Drug-related TEAEs, Grade ≥3 (All doses n = 24): 1 (4%) n (%)
Nausea, Drug-related TEAEs, SAE (All doses n = 24): 3 n (%) and 3 (13%) n (%)
Neutrophil count↓, Drug-related TEAEs, All grades (All doses n = 24): 1 (4%) n (%)
Neutrophil count↓, Drug-related TEAEs, SAE (All doses n = 24): 1 (4%) n (%)
Tachycardia, Drug-related TEAEs, All grades (All doses n = 24): 3 (13%) n (%)
Total n with AE, Drug-related TEAEs, All grades (All doses n = 24): 23 (96%) n (%)
Total n with AE, Drug-related TEAEs, Grade ≥3 (All doses n = 24): 6 (25%) n (%)
Total n with AE, Drug-related TEAEs, SAE (All doses n = 24): 7 n (%) and 7 (29%) n (%)
Vomiting, Drug-related TEAEs, All grades (All doses n = 24): 9 (38%) n (%)
Vomiting, Drug-related TEAEs, Grade ≥3 (All doses n = 24): 2 (8%) n (%)
Vomiting, Drug-related TEAEs, SAE (All doses n = 24): 2 n (%) and 2 (8%) n (%)
grade 5 (fatal) TEAEs (Module 1 Part A): No grade 5 (fatal) TEAEs
number of drug-related SAEs (Module 1 Part A, all doses): 11
number of drug-related TEAE recorded (Module 1 Part A, all doses): 129
patients discontinued due to toxicity related to OMO-1, in total (Module 1 Part A, all doses): 8 patients
patients with drug-related TEAE (Module 1 Part A, all doses): 23 out of 24
DLTs (cohort 1 (100 mg BID)): no DLTs
DLTs (cohort 2 (200 mg BID)): no DLTs
number of TEAEs that led to OMO-1 treatment discontinuation (cohort 3 (400 mg BID)): 6 TEAEs
patients requiring a dose reduction due to treatment-related toxicity (cohort 3 (400 mg BID)): 2 out of 3
DLTs (cohort 3 (400 mg BID)): no DLTs
DLTs (cohort 4 (250 mg BID)): No DLTs
peripheral edema related to OMO-1 (in vivo): No reports
recommended phase 2 dose (RP2D) (oral monotherapy, 3 + 3 dose escalation, continuous 21 day/cycle): 250 mg BID
